# Source: patent US20210275480A1, “COMPOSITIONS AND METHODS FOR THE REDUCTION OR TREATMENT OF FIBROSIS” (AXCELLA HEALTH INC., priority 2018, published 2021)
# Tests used:
# [1] = test system: LX-2 hepatic stellate cells; test: TGFβ1-induced fibrogenic gene expression (Col1a1, Acta2, Timp2) in LX-2 hepatic stellate cells, qPCR; type: cell-based, human; settings: LX-2 cells with TGFβ1
# Source text: Hepatic stellate cells in a healthy liver are in the space of Disse, between the hepatocytes and liver sinusoidal endothelial cells. In response to liver injury hepatic stellate cells become activated, proliferative and contractile, increase production of aSMA, secretion of type I and III collagens and specific MMP and TIMP proteins. LX-2 cells were selected as a model of activated hepatic stellate cells and used to test whether specific amino acid compositions would reduce fibrogenic gene expression induced with TGFβ1.
# LX-2 hepatic stellate cells (Millipore) were seeded on day 0 at 1.67E4 cells per well in collagen I coated 96-well microplates (ThermoFisher) in Dulbecco's Modified Eagle Medium (DMEM, Corning) supplemented with 2% heat inactivated fetal bovine serum (HI-FBS, HyClone) and 0.2% Primocin (InVivoGen) and incubated overnight at 37° C., 5% CO2. […] Combinations containing N-acetylcysteine were dosed with 10 mM. Cells were pretreated for 6 hours at 37° C., 5% CO2. After pretreatment, TGFβ1 (R&D Systems) or vehicle was spiked into each well for a final concentration of 5 ng/mL and cells were incubated under this stimulus for a further 12 hours at 37° C., 5% CO2.
# After 12 hour incubation, RNA extraction and quantitative PCR was conducted on lysates to determine collagen-1a1 expression normalized to β-actin housekeeping expression using the ΔΔCt method using TaqMan primer probes (Integrated DNA Technologies: Col1A1, Hs.PT.58.15517795; Actb, Hs.PT.39a.22214847; Acta2, Hs.PT.56a.24853961; Timp2, Hs.PT.58.14780594).
# [2] = test system: Col1a1 gene expression, primary human hepatic stellate cells; test: Col1a1 gene expression in TGFβ1-stimulated primary human hepatic stellate cells; type: cell-based; settings: for Col1a1 Fold Expression Relative to Control, Mean: normalized to Gapdh; for Col1a1 gene expression: primary human hepatic stellate cells, three healthy donors, TGFβ1 3 ng/mL 24 h, summary in words
# Description: Primary human hepatic stellate cells were obtained from Samsara Sciences. Cells were grown in Complete HSC Medium to ˜80% confluence in T75 or T150 flasks below passage 10 were seeded into sterile, collagen I coated, 96-well optical plastic microplates (ThermoScientific, 152036) and incubated overnight at 37° C., 5% CO2 in a humidified incubator in DMEM with 2% Fetal Bovine Serum and 1% Antibiotic-Antimycotic. After the overnight incubation, plates are washed and pretreated with medium±single amino acid dropout, 1×HMDB DMEM±supplemental amino acid dose for 10.5 hours. After 10.5 hour pretreatment, the same pretreatment medium supplemented with 3 ng/mL TGFβ1, was applied and incubated for 24 hours at 37° C., 5% CO2. After 24 hour stimulus, supernatant was removed, RNA was extracted and gene expression was evaluated using the ΔΔCq method within each single amino acid dropout and supplementation by normalizing to its own 1×HMDB concentration.
# [3] = test system: Hsp47 gene expression, primary human hepatic stellate cells; test: Hsp47 gene expression in TGFβ1-stimulated primary human hepatic stellate cells; type: cell-based; settings: for Hsp47 Fold Expression Relative to Control, Mean: first donor, normalized to Gapdh, single amino acid; for Hsp47 gene expression: primary human hepatic stellate cells, three healthy donors, TGFβ1 3 ng/mL 24 h, summary in words
# Description: Primary human hepatic stellate cells were obtained from Samsara Sciences based on the following criteria for selecting donors: adult age (between 18 and 50 years), normal BMI (>18.5 and <25), and absence of confounding liver disease. Cells grown in Complete HSC Medium to ˜80% confluence in T75 or T150 flasks below passage 10 were seeded into sterile, collagen I coated, 96-well optical plastic microplates (ThermoScientific, 152036) at 6000 cells per well (1250 cells per cm2) and incubated overnight at 37° C., 5% CO2 in a humidified incubator in DMEM with 2% Fetal Bovine Serum and 1% Antibiotic-Antimycotic.
# After the overnight incubation, plates were removed from the incubator and the medium was gently pipetted off and washed twice with 150 μL per well DPBS. The DPBS was removed and the pretreatment medium (±single amino acid dropout, 1×HMDB DMEM+1% Antibiotic-Antimycotic, 10 mM HEPES, ±supplemental amino acid dose; see experiment for medium composition) was applied to the cells at 150 μL per well. Plates were returned to the incubator for 10.5 hours.
# After 10.5 hour pretreatment, the medium was removed from the cells, and the same pretreatment medium, now supplemented with 3 ng/mL TGFβ1, was applied. Each plate contained 3 ng/mL TGFβ1 in 1× human plasma amino acid (HMDB or PAA) concentration medium, 0 ng/mL in 1×HMDB, and 3 ng/mL TGFβ1+20 μM Silybin in 1×HMDB to serve as controls. Plates were then incubated for 24 hours at 37° C., 5% CO2.
# After 24 hour stimulus, supernatant was removed and frozen at −80° C. in two separate aliquots. The cells were then washed with 125 μL per well Buffer FCW (FastLane Cell Multiplex NR Kit, Qiagen, 216713). The wash buffer was immediately removed and 50 μL of Cell Processing Mix (containing genomic DNA Wipeout buffer) was applied to lyse cells, incubating for 10 minutes at room temperature. RNA lysate was then transferred to 96-well qPCR plates, sealed, and gDNA was digested on thermal cycler at 75° C. for 5 minutes. RNA lysate was frozen at −80° C.
# Each 20 μL one-step RT-qPCR reaction contained 4 μL of RNA lysate. Gene expression of Hsp47, and Gapdh were multiplexed using the HEX, and FAM fluorescent channels, respectively, with commercially available primer-probe mixes (the Human Hsp47 Primer-Probe Set, HEX; and the Human Gapdh Primer-Probe Set, FAM from IDT). Gene expression was evaluated using the ΔΔCq method within each single amino acid dropout and supplementation by normalizing to its own 1×HMDB concentration.
# [4] = individual amino acid at 1X HMDB derived concentration
# [5] = individual amino acid at 50X HMDB derived concentration
compound,measurement,setting,value
"CC[C@H](C)[C@H](N)C(=O)O [ILE, isoleucine]","Col1a1 gene expression, mean",[1]; [4],2.020
same,"Col1a1 gene expression, mean",[1]; [5],2.028
same,"Col1a1 Fold Expression Relative to Control, Mean","[2]; Table 31-4, second donor, 66 μM (baseline, reference)",1.02 fold
same,"Col1a1 Fold Expression Relative to Control, Mean","[2]; Table 31-4, second donor, 1328 μM",0.94 fold
same,"Col1a1 Fold Expression Relative to Control, Mean","[2]; Table 31-4, second donor, 3320 μM",0.94 fold
same,"Col1a1 Fold Expression Relative to Control, Mean","[2]; Table 31-4, second donor, 6639 μM",1.03 fold
same,"Col1a1 Fold Expression Relative to Control, Mean","[2]; first donor, 66 μM (baseline, reference)",1.01 fold
same,"Col1a1 Fold Expression Relative to Control, Mean","[2]; first donor, 1328 μM",1.05 fold
same,"Col1a1 Fold Expression Relative to Control, Mean","[2]; first donor, 3320 μM",1.10 fold
same,"Col1a1 Fold Expression Relative to Control, Mean","[2]; first donor, 6639 μM",1.11 fold
same,Col1a1 gene expression,[2],did not significantly change
same,"Col1a1 Fold Expression Relative to Control, Mean","[2]; second donor, 66 μM (baseline, reference)",1.00 fold
same,"Col1a1 Fold Expression Relative to Control, Mean","[2]; second donor, 1328 μM",0.97 fold
same,"Col1a1 Fold Expression Relative to Control, Mean","[2]; second donor, 3320 μM",0.99 fold
same,"Col1a1 Fold Expression Relative to Control, Mean","[2]; second donor, 6639 μM",1.03 fold
same,"Hsp47 Fold Expression Relative to Control, normalized to Gapdh (Mean)","[3]; Table 38, second donor, 66 μM (baseline 1×HMDB concentration)",1.00 fold
same,"Hsp47 Fold Expression Relative to Control, normalized to Gapdh (Mean)","[3]; Table 38, second donor, 1328 μM",0.90 fold
same,"Hsp47 Fold Expression Relative to Control, normalized to Gapdh (Mean)","[3]; Table 38, second donor, 3320 μM",0.92 fold
same,"Hsp47 Fold Expression Relative to Control, normalized to Gapdh (Mean)","[3]; Table 38, second donor, 6639 μM",0.94 fold
same,"Hsp47 Fold Expression Relative to Control, normalized to Gapdh (Mean)","[3]; Table 40, second donor (so in the source), 66 μM (baseline 1×HMDB concentration)",1.00 fold
same,"Hsp47 Fold Expression Relative to Control, normalized to Gapdh (Mean)","[3]; Table 40, second donor (so in the source), 1328 μM",1.00 fold
same,"Hsp47 Fold Expression Relative to Control, normalized to Gapdh (Mean)","[3]; Table 40, second donor (so in the source), 3320 μM",0.98 fold
same,"Hsp47 Fold Expression Relative to Control, normalized to Gapdh (Mean)","[3]; Table 40, second donor (so in the source), 6639 μM",1.06 fold
same,"Hsp47 Fold Expression Relative to Control, Mean",[3]; 66 μM (1X reference),1.00 fold
same,"Hsp47 Fold Expression Relative to Control, Mean",[3]; 1328 μM,1.07 fold
same,"Hsp47 Fold Expression Relative to Control, Mean",[3]; 3320 μM,1.22 fold
same,"Hsp47 Fold Expression Relative to Control, Mean",[3]; 6639 μM,0.99 fold
same,Hsp47 gene expression,[3],did not significantly change
"CC(C)[C@H](N)C(=O)O [VAL, valine]","Col1a1 gene expression, mean",[1]; [4],2.093
same,"Col1a1 gene expression, mean",[1]; [5],2.203
same,"Col1a1 Fold Expression Relative to Control, Mean","[2]; Table 31-4, second donor, 234 μM (baseline, reference)",1.01 fold
same,"Col1a1 Fold Expression Relative to Control, Mean","[2]; Table 31-4, second donor, 4684 μM",1.22 fold
same,"Col1a1 Fold Expression Relative to Control, Mean","[2]; Table 31-4, second donor, 11710 μM",1.27 fold
same,"Col1a1 Fold Expression Relative to Control, Mean","[2]; Table 31-4, second donor, 23420 μM",1.13 fold
same,"Col1a1 Fold Expression Relative to Control, Mean","[2]; first donor, 234 μM (baseline, reference)",1.00 fold
same,"Col1a1 Fold Expression Relative to Control, Mean","[2]; first donor, 4684 μM",1.05 fold
same,"Col1a1 Fold Expression Relative to Control, Mean","[2]; first donor, 11710 μM",1.09 fold
same,"Col1a1 Fold Expression Relative to Control, Mean","[2]; first donor, 23420 μM",1.00 fold
same,Col1a1 gene expression,[2],did not significantly change
same,"Col1a1 Fold Expression Relative to Control, Mean","[2]; second donor, 234 μM (baseline, reference)",1.00 fold
same,"Col1a1 Fold Expression Relative to Control, Mean","[2]; second donor, 4684 μM",1.05 fold
same,"Col1a1 Fold Expression Relative to Control, Mean","[2]; second donor, 11710 μM",0.98 fold
same,"Col1a1 Fold Expression Relative to Control, Mean","[2]; second donor, 23420 μM",1.05 fold
same,"Hsp47 Fold Expression Relative to Control, normalized to Gapdh (Mean)","[3]; Table 38, second donor, 234 μM (baseline 1×HMDB concentration)",1.00 fold
same,"Hsp47 Fold Expression Relative to Control, normalized to Gapdh (Mean)","[3]; Table 38, second donor, 4684 μM",1.02 fold
same,"Hsp47 Fold Expression Relative to Control, normalized to Gapdh (Mean)","[3]; Table 38, second donor, 11710 μM",0.99 fold
same,"Hsp47 Fold Expression Relative to Control, normalized to Gapdh (Mean)","[3]; Table 38, second donor, 23420 μM",0.89 fold
same,"Hsp47 Fold Expression Relative to Control, normalized to Gapdh (Mean)","[3]; Table 40, second donor (so in the source), 234 μM (baseline 1×HMDB concentration)",1.00 fold
same,"Hsp47 Fold Expression Relative to Control, normalized to Gapdh (Mean)","[3]; Table 40, second donor (so in the source), 4684 μM",0.97 fold
same,"Hsp47 Fold Expression Relative to Control, normalized to Gapdh (Mean)","[3]; Table 40, second donor (so in the source), 11710 μM",0.95 fold
same,"Hsp47 Fold Expression Relative to Control, normalized to Gapdh (Mean)","[3]; Table 40, second donor (so in the source), 23420 μM",0.95 fold
same,"Hsp47 Fold Expression Relative to Control, Mean",[3]; 234 μM (1X reference),1.00 fold
same,"Hsp47 Fold Expression Relative to Control, Mean",[3]; 4684 μM,1.05 fold
same,"Hsp47 Fold Expression Relative to Control, Mean",[3]; 11710 μM,1.05 fold
same,"Hsp47 Fold Expression Relative to Control, Mean",[3]; 23420 μM,1.00 fold
same,Hsp47 gene expression,[3],did not significantly change
